Test results published in US7357835B2, “Production of crystalline materials by using high intensity ultrasound” (Accentus PLC, priority 2002, dated 2008).

Legend:
[1] = Saturation of aqueous D-xylose solution; format: physicochemical; settings: saturated at 50° C.
Description: (§1) An experiment to investigate the effect of ultrasound on crystallisation has been performed, as follows. An aqueous solution of D-xylose containing 25 g D-xylose per 10 ml water was prepared, which would be saturated at 50° C. This was than cooled at a rate of 0.2 K/min to 20° C., and the resulting solid products were separated and isolated. […] If the transducers 14 were energized for a period of 2 minutes, starting at 46° C., then crystals appeared at 43° C. If the transducers 14 were energized continuously, starting at 50° C., then the resulting crystals were very small, and information on sizes was not obtained.

[2] = Effect of ultrasound on crystallisation of aqueous D-xylose solution cooled at 0.2 K/min; format: physicochemical; settings: for temperature T at which solid first appeared: solution saturated at 50° C.
Text: Referring to the drawing, a batch crystallisation irradiator 10 includes a stainless-steel vessel 12 of internal diameter 0.31 m and of wall thickness 2 mm. To the outside of the wall are attached sixty transducer modules 14 closely packed in a square array. Each transducer module 14 comprises a 50 W piezoelectric transducer 16 which resonates at 20 kHz, attached to a conically flared titanium coupling block 18 by which it is connected to the wall, the wider end of each block being of diameter 63 mm. The transducer modules define five circumferential rings each of twelve modules 14, the centres of the coupling blocks 18 being on a square pitch of 82 mm. The irradiator 10 also incorporates three signal generators 20 (only one is shown) each of which drives the transducers 16 in a pair of adjacent longitudinal rows and another such pair of rows one third of the circumference apart from the first pair.
Consequently the solution will become saturated and then supersaturated. When the temperature is about 10° C. below that at which saturation occurs, the transducers are energized briefly, each generator 20 being energized for 0.8 s successively. Each transducer irradiates 50 W over a circle of diameter 63 mm, that is an intensity of 1.6 W/cm^2. The ultrasonic energy is dissipated over the cylindrical volume of the vessel 12, which is about 31 litres, so if all the transducers 16 were energised simultaneously the power density would be about 100 W/litre. To avoid focusing, only one signal generator 20 is energized at any one time, so the energy deposition is about 33 W/litre. After 0.8 s, a different generator 20 is energized, and so on. After 2.4 s each transducer has been energized, and application of ultrasound is terminated. The contents of the vessel 12 are then inspected, to see if any crystals have formed. If there are no crystals this activation procedure is repeated.
When they are activated, the signal generators 20 generate signals at a frequency that varies between 19.5 and 20.5 kHz, the signals from different signal generators 20 varying independently of each other. The frequency of each signal generator 20 varies sinusoidally with time between those frequency limits, at a frequency of 10 Hz.
as §1

Structure (SMILES): O=C[C@H](O)[C@@H](O)[C@H](O)CO [D-xylose]
- concentration of saturated aqueous solution [1]: 25 g per 10 ml water
- crystal size at 10% cumulative percentile (by mass) ([2]; 2 min ultrasound): 43 microns
- crystal size at 50% cumulative percentile (by mass) ([2]; 2 min ultrasound): 106 microns
- crystal size at 90% cumulative percentile (by mass) ([2]; 2 min ultrasound): 211 microns
- temperature T at which solid first appeared ([2]; 2 min ultrasound starting at 46° C., cooled 0.2 K/min): 43 °C
- metastable zone width ([2]; absence of ultrasound): about 14 K
- metastable zone width ([2]; continuous application of ultrasound): about 4 K
- temperature T at which solid first appeared ([2]; continuous ultrasound starting at 50° C., cooled 0.2 K/min): 46 °C
- crystal size at 10% cumulative percentile (by mass) ([2]; no ultrasound): 27 microns
- crystal size at 50% cumulative percentile (by mass) ([2]; no ultrasound): 67 microns
- crystal size at 90% cumulative percentile (by mass) ([2]; no ultrasound): 149 microns
- temperature T at which solid first appeared ([2]; no ultrasound (control), cooled 0.2 K/min to 20° C.): 36 °C
- metastable zone width ([2]; short application of ultrasound): about 7 K
